In patent US9890133B2 (priority 2011, dated 2018) one finds EC50 and CC50 data, which are given here for twelve compounds.

SMILES strings stand for the structures. Converted amounts (≈) assume the structure as drawn.

One data set relates to Poliovirus 3. Nature of the data set: microbe, parasite or virus in culture. Format: cell-based. Conditions: Enterovirus C, read-out: Poliovirus3 EC50.
A further data set can be described thus: in vitro. Conditions: human.

Broadly, the EC50 is the concentration at which the effect is half-maximal. As to `CC(C)c1ccc2c(c1)OC1(O)c3cccc(N)c3C(=O)C21NC(=O)c1nccn1C` (stereo not drawn) [Example 252, N-(1-Amino-4b-hydroxy-7-isopropyl-10-oxo-9b,10-dihydro-4bH-indeno[1,2-b]benzofuran-9b-yl)-1-methyl-1H-imidazole-2-carboxamide], in the data set on Poliovirus 3, the EC50 is less than 0.01 µg/mL. For the same compound, the figures for the CC50 in “in vitro” and in the data set “in vitro” (Picorana CC50) were 3.53 µg/mL (≈ 8.44 µM) and 3.64 µg/mL (≈ 8.7 µM), respectively.
Regarding `CC(C)c1ccc2c(c1)OC1(O)c3cccc(N)c3C(=O)C21NC(=O)c1cccc[n+]1[O-]` (stereo not drawn) [Example 253, 2-((1-Amino-4b-hydroxy-7-isopropyl-10-oxo-9b,10-dihydro-4bH-indeno[1,2-b]benzofuran-9b-yl)carbamoyl)pyridine 1-oxide], the EC50 in the data set with Poliovirus 3 was less than 0.01 µg/mL. This compound also had a CC50 in “in vitro” greater than 10 µg/mL.
With `CC(C)c1ccc2c(c1)OC1(O)c3cccc(N)c3C(=O)C21NC(=O)c1cncc(F)c1` (stereo not drawn) [Example 255, N-(1-Amino-4b-hydroxy-7-isopropyl-10-oxo-9b,10-dihydro-4bH-indeno[1,2-b]benzofuran-9b-yl)-5-fluoronicotinamide], in the data set with Poliovirus 3, the concentration giving a half-maximal response (EC50) is less than 0.01 µg/mL. Further, the CC50 in the data set “in vitro” is greater than 10 µg/mL.
For `CC(C)c1ccc2c(c1)OC1(O)c3cccc(N)c3C(=O)C21NC(=O)c1cncc(O)c1` (stereo not drawn) [Example 256, N-(1-Amino-4b-hydroxy-7-isopropyl-10-oxo-9b,10-dihydro-4bH-indeno[1,2-b]benzofuran-9b-yl)-5-hydroxynicotinamide], in that order: less than 0.01 µg/mL and greater than 10 µg/mL.
For `CC(C)c1ccc2c(c1)OC1(O)c3cccc(N)c3C(=O)C21NC(=O)c1ncccc1O` (stereo not drawn) [Example 257, N-(1-Amino-4b-hydroxy-7-isopropyl-10-oxo-9b,10-dihydro-4bH-indeno[1,2-b]benzofuran-9b-yl)-3-hydroxypicolinamide], in that order: 0.031 µg/mL (≈ 0.0719 µM) and greater than 10 µg/mL.
For the compound `Cc1ccncc1C(=O)NC12C(=O)c3c(N)cccc3C1(O)Oc1cc(C(C)C)ccc12` (stereo not drawn) [Example 258, N-(1-Amino-4b-hydroxy-7-isopropyl-10-oxo-9b,10-dihydro-4bH-indeno[1,2-b]benzofuran-9b-yl)-4-methylnicotinamide], the EC50 with Poliovirus 3 came out at 0.04 µg/mL (≈ 0.0931 µM). This compound had a CC50 in the data set “in vitro” greater than 10 µg/mL.
For `Cc1cncc(C(=O)NC23C(=O)c4c(N)cccc4C2(O)Oc2cc(C(C)C)ccc23)c1` (stereo not drawn) [Example 259, N-(1-Amino-4b-hydroxy-7-isopropyl-10-oxo-9b,10-dihydro-4bH-indeno[1,2-b]benzofuran-9b-yl)-5-methylnicotinamide], in that order: less than 0.01 µg/mL and greater than 10 µg/mL.
As to `Cc1cc2c(cc1C)C1(NC(=O)c3cccnc3)C(=O)c3c(N)cccc3C1(O)O2` (stereo not drawn) [Example 260, N-(1-Amino-4b-hydroxy-7,8-dimethyl-10-oxo-9b,10-dihydro-4bH-indeno[1,2-b]benzofuran-9b-yl)nicotinamide], the EC50 in the data set with Poliovirus 3 is 0.04 µg/mL (≈ 0.0996 µM). Besides, the CC50 in “in vitro” was greater than 10 µg/mL.
For `COc1cncc(C(=O)NC23C(=O)c4c(N)cccc4C2(O)Oc2cc(C(C)C)ccc23)c1` (stereo not drawn) [Example 261, N-(1-Amino-4b-hydroxy-7-isopropyl-10-oxo-9b,10-dihydro-4bH-indeno[1,2-b]benzofuran-9b-yl)-5-methoxynicotinamide], in that order: less than 0.01 µg/mL and greater than 10 µg/mL.
On to `Cc1cc2c(cc1C)C1(NC(=O)c3ccc4ncccc4c3)C(=O)c3c(N)cccc3C1(O)O2` (stereo not drawn) [Example 262, N-(1-Amino-4b-hydroxy-7,8-dimethyl-10-oxo-9b,10-dihydro-4bH-indeno[1,2-b]benzofuran-9b-yl)quinoline-6-carboxamide], for which the concentration for a half-maximal effect (EC50) in the data set with Poliovirus 3 is 0.0124 µg/mL (≈ 0.0275 µM). This compound also registered a CC50 in the data set “in vitro” greater than 10 µg/mL.
Turning to `CC(C)c1ccc2c(c1)OC1(O)c3cccc(N)c3C(=O)C21NC(=O)c1ccc2ccccc2n1` (stereo not drawn) [Example 263], the EC50 with Poliovirus 3 was found to be 0.039 µg/mL (≈ 0.0838 µM). Also, the figures for the CC50 in “in vitro” and in “in vitro” (Picorana CC50) were 5.4 µg/mL (≈ 11.6 µM) and 7.65 µg/mL (≈ 16.4 µM), respectively.
Taken in the same sequence, the figures for `CC(C)c1ccc2c(c1)OC1(O)c3cccc(N)c3C(=O)C21NC(=O)c1cc2ccccc2[nH]1` (stereo not drawn) [Example 265] were less than 0.01 µg/mL, 4.4 µg/mL (≈ 9.7 µM) and 4.75 µg/mL (≈ 10.5 µM).
